Experimental data taken from PubChem BioAssay (NCI).
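A five-concentration, 48-hour dose response in 96-well plates underlies each endpoint, interpolated linearly between surrounding concentrations. TGI: concentration producing complete growth inhibition.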

Key:
Experiment in all cases: NCI anticancer screen, dose series, 48 h
A498 renal = test system: A498 renal
DU-145 prostate = test system: DU-145 prostate
HOP-92 NSCLC = test system: HOP-92 NSCLC
HT29 colon = test system: HT29 colon
IGROV1 ovarian = test system: IGROV1 ovarian
MDA-MB-231 breast = test system: MDA-MB-231 breast
MDA-N = test system: MDA-N
NCI-H226 lung = test system: NCI-H226 lung
OVCAR-3 ovarian = test system: OVCAR-3 ovarian
OVCAR-5 ovarian = test system: OVCAR-5 ovarian
PC-3 prostate = test system: PC-3 prostate
SK-MEL-5 melanoma = test system: SK-MEL-5 melanoma
SNB-19 CNS = test system: SNB-19 CNS
SW-620 colon = test system: SW-620 colon
U251 CNS = test system: U251 CNS
UACC-62 melanoma = test system: UACC-62 melanoma
UO-31 renal = test system: UO-31 renal
OVCAR-8 ovarian = test system: OVCAR-8 ovarian
SNB-75 CNS = test system: SNB-75 CNS

SMILES	TGI (A498 renal) [µM]	TGI (DU-145 prostate) [µM]	TGI (HOP-92 NSCLC) [µM]	TGI (HT29 colon) [µM]	TGI (IGROV1 ovarian) [µM]	TGI (MDA-MB-231 breast) [µM]	TGI (MDA-N) [µM]	TGI (NCI-H226 lung) [µM]	TGI (OVCAR-3 ovarian) [µM]	TGI (OVCAR-5 ovarian) [µM]	TGI (PC-3 prostate) [µM]	TGI (SK-MEL-5 melanoma) [µM]	TGI (SNB-19 CNS) [µM]	TGI (SW-620 colon) [µM]	TGI (U251 CNS) [µM]	TGI (UACC-62 melanoma) [µM]	TGI (UO-31 renal) [µM]	TGI (OVCAR-8 ovarian) [µM]	TGI (SNB-75 CNS) [µM]
CN=c1nc2sc3c(c2c(NC(=S)NC)s1)CCCC3	> 100	> 100	> 100	> 100	> 100	> 100	> 100	> 100	> 100	> 100	> 100	> 100	> 100	> 100	> 100	> 100	> 100		
COc1cccc2c1OC(c1ccc(Cl)cc1)C([N+](=O)[O-])=C2 (stereo not given)		13.2		3.21	9.19	13.8	3.45		7.08	7.84	5.3	2.95	17		5.77	10.4	3.44	10.2	
Cc1cc(C)n2nc3nc(N)c(C#N)c(-c4ccccc4)c3c2n1	> 100	> 100	> 100	> 100	> 100	> 100	> 100	> 100	> 100	> 100	> 100	> 100	> 100	> 100	> 100	> 100	> 100	> 100	
COc1cc(C(=O)n2c3ccc(Br)cc3c3nc4ccccc4nc32)cc(OC)c1OC		> 100	> 100	> 100	> 100	> 100	> 100	> 100	> 100	> 100	> 100	> 100	> 100	> 100	> 100	> 100	> 100	> 100	> 100
CC(=O)O[C@H]1C[C@H]2[C@@H](OC(C)=O)/C=C3\C[C@](C)(C(=O)[C@H](O)C(=C1C)C2(C)C)[C@@H](O)C[C@@H]3OC(=O)[C@H](O)[C@H](c1ccccc1)N(C)C	> 100	> 100	> 100		> 100	> 100	> 100	> 100	> 100	> 100	> 100	> 100	> 100	> 100	> 100	> 100	> 100	> 100	> 100
Nc1ncnc2c1ccn2C/C=C\CO	> 100	> 100	> 100	> 100	> 100	> 100	> 100		> 100	> 100	> 100	> 100	> 100	> 100	> 100	> 100	> 100	> 100	> 100
NC1CC(=O)c2c(Br)csc21 (stereo not given)	> 100	> 100		> 100	> 100	> 100	> 100		> 100	> 100	> 100	> 100	> 100	77.7	53.1	58.7	81.2	> 100	> 100
CC(C)CC1C(=O)NCCC(NC(=O)C(Cc2ccc(OC(C)(C)C)cc2)NC(=O)OC(C)(C)C)C(=O)NC(Cc2ccccc2)C(=O)NC(Cc2ccccc2)NC1=O (stereo not given)		> 100	32.1	19.6	31.7	19.9	> 100	21.2	19.9	21.2	46.1	85.9	42.4	13.6	27.2	31.1	> 100	20.6	
CC(C)(C)OC(=O)N1CCc2[nH][nH]c(=O)c2C1	> 100	> 100	> 100	> 100	> 100	> 100	> 100	> 100	> 100		> 100		> 100	> 100	> 100	> 100	> 100	> 100	
N=C1/C(=C/c2ccc(F)cc2)C(=O)N=C2SC=NN12		> 100	> 100	> 100	> 100	> 100	> 100	> 100	> 100	> 100	> 100	> 100	> 100	> 100	> 100	> 100	> 100	> 100	> 100
COC(=O)CC(C#N)(OP1(=O)OC(c2ccccc2)C(C)N1C)c1ccccc1 (stereo not given)	> 100	> 100	85.8	53.2	> 100	> 100	75.4		42.6	69.6	> 100	> 100	> 100	43.6	87.3	56.9	27.2	67.1	> 100
O=c1cnn(C2OC(C(O)CO)C(O)C2O)c(=O)[nH]1 (stereo not given)		> 100	> 100	> 100	> 100	> 100	> 100	> 100	> 100	> 100	> 100	> 100	> 100	> 100	> 100	> 100	> 100	> 100	> 100
OCCCCCCCCCCCOc1ccc(C2OCC3(CO2)COC(c2ccc(OCCCCCCCCCCCO)cc2)OC3)cc1 (stereo not given)	> 50	> 50		> 50	> 50	> 50	> 50	> 50	> 50	> 50	> 50	> 50	> 50	> 50	> 50	> 50	> 50	> 50	> 50
